PubChem BioAssay AID1918993 (Molecular Pharmacology Branch, DTP, NCI, 2023)
Values joined by “and” are separate entries in the source; they are usually repeats but may differ in a detail not shown here. Identical values can stand only once.

Test system: 233499-124-R-J3-PDC complex spheroid growth
Test: Anticancer human tumor 233499-124-R-J3-PDC patient-derived colon adenocarcinoma cell line growth inhibition [AhR]
Conditions: for viability, T/C: stronger effect = lower value
In short: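 Spheroids combined tumor cells with HUVEC endothelial cells and human MSCs as stroma. AhR antagonists were paired with standard or investigational drugs, each dosed in half-log steps down from near clinical Cmax, or from 10 microM where Cmax was unknown.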

[1] = curve of first compound, second compound 0.1 µM
[2] = curve of first compound, second compound 0.316 µM
[3] = curve of first compound, second compound 1 µM
[4] = curve of first compound, second compound 3.16 µM
[5] = curve of first compound, second compound 10 µM
[6] = second compound 0.1 µM, first compound 0.0316 µM
[7] = second compound 0.1 µM, first compound 0.1 µM
[8] = second compound 0.1 µM, first compound 0.316 µM
[9] = second compound 0.1 µM, first compound 1 µM
[10] = second compound 0.1 µM, first compound 3.16 µM
[11] = second compound 0.1 µM, first compound 10 µM
[12] = second compound 0.316 µM, first compound 0.0316 µM
[13] = second compound 0.316 µM, first compound 0.1 µM
[14] = second compound 0.316 µM, first compound 0.316 µM
[15] = second compound 0.316 µM, first compound 1 µM
[16] = second compound 0.316 µM, first compound 3.16 µM
[17] = second compound 0.316 µM, first compound 10 µM
[18] = second compound 1 µM, first compound 0.0316 µM
[19] = second compound 1 µM, first compound 0.1 µM
[20] = second compound 1 µM, first compound 0.316 µM
[21] = second compound 1 µM, first compound 1 µM
[22] = second compound 1 µM, first compound 3.16 µM
[23] = second compound 1 µM, first compound 10 µM
[24] = second compound 3.16 µM, first compound 0.0316 µM
[25] = second compound 3.16 µM, first compound 0.1 µM
[26] = second compound 3.16 µM, first compound 0.316 µM
[27] = second compound 3.16 µM, first compound 1 µM
[28] = second compound 3.16 µM, first compound 3.16 µM
[29] = second compound 3.16 µM, first compound 10 µM
[30] = second compound 10 µM, first compound 0.0316 µM
[31] = second compound 10 µM, first compound 0.1 µM
[32] = second compound 10 µM, first compound 0.316 µM
[33] = second compound 10 µM, first compound 1 µM
[34] = second compound 10 µM, first compound 3.16 µM
[35] = second compound 10 µM, first compound 10 µM
[36] = second compound 0.1 µM, first compound 0.00316 µM
[37] = second compound 0.1 µM, first compound 0.01 µM
[38] = second compound 0.316 µM, first compound 0.00316 µM
[39] = second compound 0.316 µM, first compound 0.01 µM
[40] = second compound 1 µM, first compound 0.00316 µM
[41] = second compound 1 µM, first compound 0.01 µM
[42] = second compound 3.16 µM, first compound 0.00316 µM
[43] = second compound 3.16 µM, first compound 0.01 µM
[44] = second compound 10 µM, first compound 0.00316 µM
[45] = second compound 10 µM, first compound 0.01 µM
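Note: spheroids exposed to agents for seven days before reading.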

IC50 [1] [µM]	IC50 [2] [µM]	IC50 [3] [µM]	IC50 [4] [µM]	IC50 [5] [µM]	Structure (SMILES)	viability, T/C [6] [%]	viability, T/C [7] [%]	viability, T/C [8] [%]	viability, T/C [9] [%]	viability, T/C [12] [%]	viability, T/C [13] [%]	viability, T/C [14] [%]	viability, T/C [15] [%]	viability, T/C [18] [%]	viability, T/C [19] [%]	viability, T/C [20] [%]	viability, T/C [24] [%]	viability, T/C [25] [%]	viability, T/C [30] [%]	viability, T/C [31] [%]	other results
> 10	> 10	> 10	> 10	> 10	CC(C)c1c(-c2ccccc2)nc2c(C#N)c[nH]n2c1=O + CC(CO)NC(=O)c1cc(-c2ccc(Cl)cc2)nn(-c2cnn(C)c2)c1=O	100	97.7	99.6	101	113	109	89.5	93.7	107	106	98	101	95.3	98.2	82.5	viability, T/C [10]: 104%; viability, T/C [11]: 105%; viability, T/C [16]: 96.2%; viability, T/C [17]: 102%; viability, T/C [21]: 102%; viability, T/C [22]: 104%; viability, T/C [23]: 100%; viability, T/C [26]: 94.5%; viability, T/C [27]: 96.8%; viability, T/C [28]: 92.4%; viability, T/C [29]: 87.8%; viability, T/C [32]: 93.5%; viability, T/C [33]: 86.3%; viability, T/C [34]: 87.4%; viability, T/C [35]: 96.6%
					CC1(C)CCC(CN2CCN(c3ccc(C(=O)NS(=O)(=O)c4ccc(NCC5CCOCC5)c([N+](=O)[O-])c4)c(Oc4cnc5[nH]ccc5c4)c3)CC2)=C(c2ccc(Cl)cc2)C1																viability, T/C (compound 0.0316 µM): 87.2% and 90.9% and 106%; viability, T/C (compound 0.1 µM): 102% and 112% and 109%; viability, T/C (compound 0.316 µM): 92.4% and 105% and 97.8%; viability, T/C (compound 1 µM): 105% and 101% and 104%; viability, T/C (compound 3.16 µM): 112% and 114% and 98.7%; viability, T/C (compound 10 µM): 109% and 42.8% and 31.2%; IC50 (curve of compound): > 10 µM and 8.74 µM and 7.26 µM
> 10	> 10	> 10	> 10	> 10	COc1cc(C2c3cc4c(cc3C(OC3OC5COC(C)OC5C(O)C3O)C3COC(=O)C23)OCO4)cc(OC)c1O (configuration not stated) + CC(CO)NC(=O)c1cc(-c2ccc(Cl)cc2)nn(-c2cnn(C)c2)c1=O	102	88.7	93.6	90.1	93.6	97.5	96.6	88.9	91	94	94.2	99.2	95.5	92.7	95.5	viability, T/C [10]: 98.2%; viability, T/C [11]: 77.7%; viability, T/C [16]: 83.7%; viability, T/C [17]: 76.5%; viability, T/C [21]: 98.4%; viability, T/C [22]: 81.4%; viability, T/C [23]: 72.8%; viability, T/C [26]: 75.2%; viability, T/C [27]: 93.5%; viability, T/C [28]: 91.5%; viability, T/C [29]: 83.9%; viability, T/C [32]: 81.8%; viability, T/C [33]: 77.6%; viability, T/C [34]: 67.4%; viability, T/C [35]: 57.3%
0.409	0.442	0.395	0.475	0.637	NS(=O)(=O)OCC1CC(n2ccc3c(NC4CCc5ccccc54)ncnc32)CC1O (configuration not stated) + Cc1ccccc1N=Nc1ccc(NC(=O)c2ccnn2C)c(C)c1	110	113	61.3	10.8	125	96.6	68.1	16.6	116	103	58.2	115	97.5	109	108	viability, T/C [10]: 2.55%; viability, T/C [11]: 3.77%; viability, T/C [16]: 3.6%; viability, T/C [17]: 2.37%; viability, T/C [21]: 15.8%; viability, T/C [22]: 3.88%; viability, T/C [23]: 3.13%; viability, T/C [26]: 70.8%; viability, T/C [27]: 14.6%; viability, T/C [28]: 2.81%; viability, T/C [29]: 3.25%; viability, T/C [32]: 83.6%; viability, T/C [33]: 28.6%; viability, T/C [34]: 4.02%; viability, T/C [35]: 3.01%
> 1	> 1	> 1	> 1	> 1	Nc1ncn(C2CC(O)C(CO)O2)c(=O)n1 (configuration not stated) + Cc1ccccc1N=Nc1ccc(NC(=O)c2ccnn2C)c(C)c1	91.7	98.6	91.5	111	93.6	82.9	102	84.5	105	107	103	107	92.5	108	106	viability, T/C [36]: 102%; viability, T/C [37]: 104%; viability, T/C [38]: 81%; viability, T/C [39]: 91.6%; viability, T/C [40]: 93.2%; viability, T/C [41]: 104%; viability, T/C [21]: 113%; viability, T/C [42]: 109%; viability, T/C [43]: 97.3%; viability, T/C [26]: 103%; viability, T/C [27]: 97.4%; viability, T/C [44]: 116%; viability, T/C [45]: 114%; viability, T/C [32]: 115%; viability, T/C [33]: 114%
> 10	> 10	> 10	> 10	> 10	COc1cc(Nc2ncc3c(n2)-c2ccc(Cl)cc2C(c2c(F)cccc2OC)=NC3)ccc1C(=O)O + Cc1ccccc1N=Nc1ccc(NC(=O)c2ccnn2C)c(C)c1	92.5	81.9	96.3	98.5	83.1	77.5	96.4	93.1	89	93.2	90.4	91.5	80.4	109	101	viability, T/C [10]: 86.5%; viability, T/C [11]: 96.7%; viability, T/C [16]: 96.6%; viability, T/C [17]: 84.2%; viability, T/C [21]: 87.2%; viability, T/C [22]: 97.5%; viability, T/C [23]: 92.1%; viability, T/C [26]: 102%; viability, T/C [27]: 105%; viability, T/C [28]: 85.2%; viability, T/C [29]: 100%; viability, T/C [32]: 102%; viability, T/C [33]: 101%; viability, T/C [34]: 116%; viability, T/C [35]: 115%
> 0.1	> 0.1	> 0.1	> 0.1	> 0.1	Cn1ncnc1C1c2n[nH]c(=O)c3cc(F)cc(c23)NC1c1ccc(F)cc1 (configuration not stated) + CC(CO)NC(=O)c1cc(-c2ccc(Cl)cc2)nn(-c2cnn(C)c2)c1=O	86.7	104			108	87.5			77.6	101		91.2	87.6	87	78.7	viability, T/C (second compound 0.1 µM, first compound 0.000316 µM): 97.1%; viability, T/C (second compound 0.1 µM, first compound 0.001 µM): 102%; viability, T/C [36]: 101%; viability, T/C [37]: 106%; viability, T/C (second compound 0.316 µM, first compound 0.000316 µM): 90.6%; viability, T/C (second compound 0.316 µM, first compound 0.001 µM): 104%; viability, T/C [38]: 88.6%; viability, T/C [39]: 92.6%; viability, T/C (second compound 1 µM, first compound 0.000316 µM): 93.6%; viability, T/C (second compound 1 µM, first compound 0.001 µM): 103%; viability, T/C [40]: 92.2%; viability, T/C [41]: 109%; viability, T/C (second compound 3.16 µM, first compound 0.000316 µM): 97%; viability, T/C (second compound 3.16 µM, first compound 0.001 µM): 103%; viability, T/C [42]: 87.9%; viability, T/C [43]: 98.9%; viability, T/C (second compound 10 µM, first compound 0.000316 µM): 83.2%; viability, T/C (second compound 10 µM, first compound 0.001 µM): 80.8%; viability, T/C [44]: 90.2%; viability, T/C [45]: 83%
